Source: patent publication US7026281B1, “Antagonistic analogs of GH-RH inhibiting IGF-I and -II” (The Administrators of the Tulane Educational Fund, priority 1998, dated 2006)
Square brackets hold non-standard residues; d marks the D form. Peptide text beside a SMILES is read from it. * marks the point of attachment. Phe(4-Cl) = N[C@@H](Cc1ccc(Cl)cc1)C(=O)O; Nle = CCCC[C@H](N)C(=O)O; Abu = CC[C@H](N)C(=O)O; PhAc = O=C(Cc1ccccc1)*

Experiments:
[1] = test system: hGH-RH(1–29)NH2 induced GH release; test: Inhibition of GH release in superfused rat pituitary system; assay type: cell-based; settings: for Inhibition of GH release (%) 30 min: 1 nM hGH-RH(1–29)NH2 30 min later; for Inhibition of GH release (%) 60 min: 1 nM hGH-RH(1–29)NH2 60 min later; for Inhibition of GH release (%) 90 min: 1 nM hGH-RH(1–29)NH2 90 min later; for Inhibition of GH release (%) 120 min: 1 nM hGH-RH(1–29)NH2 120 min later; for Inhibition of GH release (%) 0 min: 1 nM hGH-RH(1–29)NH2 at 0 min
Protocol: Superfused Rat Pituitary System.
The analogs were tested in vitro in a test described earlier (S. Vigh and A. V. Schally, Peptides 5:241–347, 1984) with modification (Z. Rekasi and A. V. Schally, P.N.A.S. 90:2146–2149, 1993).
Briefly, the cells are preincubated with peptides for 9 minutes (3 mL) at various concentrations. Immediately after the incubation, 1 nM hGH-RH(1–29)NH2 is administered for 3 minutes (1 mL) [0 minute response]. To check the duration of the antagonistic effect of the analogue, 1 nM hGH-RH(1–29)NH2 is applied 30, 60, 90, and 120 minutes later for 3 minutes [30, 60, 90, 120 min responses]. Net integral values of the GH responses are evaluated. GH responses are compared to and expressed as percent of the original GH response induced by 1 nM GH-RH(1–29)NH2. The effect of the new antagonists are compared to that of [Ac-Tyr^1,D-Arg^2]hGH-RH(1–29)NH2, the “Standard antagonist”.
Growth Hormone Radio-immunoassay.
Rat GH levels in aliquots of undiluted and diluted superfusion samples were measured by double-antibody radioimmunoassay using materials supplied by the National Hormone and Pituitary Program, Baltimore, Md. The results of RIA were analyzed with a computer program developed in our institute (V. Csernus and A. V. Schally, in Neuroendocrine Research Methods, Harwood Academic (Greenstein, B. D. ed., London, pp. 71–109, 1991), hereby incorporated by reference. Inter-assay variation was less than 15% and intra-assay variation was less than 10%.

[2] = test system: GH release stimulated by hGH-RH(1–29)NH2; test: In vivo inhibition of serum GH response in rats; parameters: species or system rat
Protocol: GH-RH antagonistic effect of the analogs was tested on young male Sprague-Dawley rats (200–250 g). In each experiment, 5 groups of 7 animals each were used. The compounds (80 μg/kg) and GH-RH(1–29)NH2 (3 μg/kg) were dissolved in 5.5% mannitol and given intravenously to the jugular vein of the rats under Nembutal anesthesia. The time elapsed between the administrations of the antagonist and GH-RH varied between groups, according to the following schedule. The first group of animals received GH-RH injection 5 min after the administration of the antagonist; for the second, third and fourth group of animals, the time interval elapsed between the injection of the antagonist and that of GH-RH was 15, 30, and 60 min, respectively. The control group was first injected with the solvent alone instead of the antagonist, followed by a GH-RH injection 5 min later.
0.4 mL blood samples were taken for GH RIA before the administration of the antagonist (“blood0”), and 5 min after the injection of GH-RH (“blood1”). The GH response in each group was calculated as rGH=(GHblood1/GHblood0), mean±S.E.M. of the individual differences. Relative inhibition of GH response (%) in each group treated was calculated as […].

[3] = biological target: T1, rat pituitary GH-RH receptors (Rattus norvegicus, UniProt Q02644); test: GH-RH radioreceptor binding assay, rat anterior pituitary membrane homogenates; settings: for Ki: competition with [His1,125I-Tyr10,Nle27]hGH-RH(1–32)NH2; for R.A. (relative affinity compared to Standard antagonist): ratio of Ki values
T1 construct: from tissue; host or cells: anterior pituitary of male Sprague-Dawley rats, crude membrane homogenates
T1 sequence (Q02644 23-464): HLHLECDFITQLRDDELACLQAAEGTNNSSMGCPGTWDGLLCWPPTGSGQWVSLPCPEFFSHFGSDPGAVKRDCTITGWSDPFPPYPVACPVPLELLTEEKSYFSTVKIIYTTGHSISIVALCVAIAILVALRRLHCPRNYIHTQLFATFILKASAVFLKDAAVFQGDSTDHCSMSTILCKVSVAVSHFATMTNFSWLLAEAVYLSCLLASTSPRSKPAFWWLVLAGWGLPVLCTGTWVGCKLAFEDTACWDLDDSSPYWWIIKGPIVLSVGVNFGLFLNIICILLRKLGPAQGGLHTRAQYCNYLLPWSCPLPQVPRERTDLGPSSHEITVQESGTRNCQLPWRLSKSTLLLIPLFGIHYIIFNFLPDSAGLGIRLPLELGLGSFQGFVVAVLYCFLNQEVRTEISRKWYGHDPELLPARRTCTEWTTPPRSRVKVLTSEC
Protocol: GH-RH Binding Assay. A sensitive radioreceptor binding assay was developed to determine the binding characteristics of the antagonists of GH-RH (G. Halmos, A. V. Schally et al., Receptor 3, 87–97, 1993), hereby incorporated by reference. The assay is based on binding of labelled [His^1,Nle^27]hGH-RH(1–32)NH2 to rat anterior pituitary membrane homogenates. Iodinated derivatives of [His^1,Nle^27]hGH-RH(1–32)NH2 are prepared by the chloramine-T method (F. C. Greenwood et al., Biochemistry 89:114–123, 1963), hereby incorporated by reference. Pituitaries from male Sprague-Dawley rats (250–300 g) are used to prepare crude membranes. For saturation binding analyses, membrane homogenates are incubated with at least 6 concentrations of [His^1,^125I-Tyr^10,Nle^27]hGH-RH(1–32) NH2, ranging from 0.005 to 0.35 nM in the presence or absence of excess unlabelled peptide (1 μM).
The pellet is counted for radioactivity in a γ-counter. The affinities of the antagonist peptides tested to rat pituitary GH-RH receptors are determined in competitive binding experiments. The final binding affinities are estimated by Ki (dissociation constant of the inhibitor-receptor complex) and are determined by the Ligand PC and McPherson computer programs of Munson and Rodbard (P. J. Munson and D. Rodbard, Anal. Biochem. 107. 220–239, 1980). Relative affinities compared to [Ac-Tyr^1,D-Arg^2]hGH-RH(1–29)NH2, the Standard antagonist, are calculated as the […].

Ki [3] [nM]	R.A. (relative affinity compared to Standard antagonist) [3]	Molecule	Inhibition of GH release (%) 30 min ([1]; antagonist 30 nM) [%]	Inhibition of GH release (%) 60 min ([1]; antagonist 30 nM) [%]	Inhibition of GH release (%) 90 min ([1]; antagonist 30 nM) [%]	Inhibition of GH release (%) 120 min ([1]; antagonist 30 nM) [%]	Inhibition of GH release (%) 0 min ([1]; antagonist 30 nM) [%]	Inhibition of the GH release stimulated by hGH-RH(1–29)NH2 (in words) ([2]; 80 μg/kg i.v., rats)	Relative inhibition % of GH response ([2]; antagonist 80 μg/kg i.v. 5 min before GH-RH) [%]	Relative inhibition % of GH response ([2]; antagonist 80 μg/kg i.v. 15 min before GH-RH) [%]	GH response mean ± S.E.M. ([2]; antagonist 80 μg/kg i.v. 15 min before GH-RH 3 μg/kg)	Relative inhibition % of GH response ([2]; antagonist 80 μg/kg i.v. 30 min before GH-RH) [%]	GH response mean ± S.E.M. ([2]; antagonist 80 μg/kg i.v. 30 min before GH-RH 3 μg/kg)	Relative inhibition % of GH response ([2]; antagonist 80 μg/kg i.v. 60 min before GH-RH) [%]	GH response mean ± S.E.M. ([2]; antagonist 80 μg/kg i.v. 60 min before GH-RH 3 μg/kg)	GH response mean ± S.E.M. ([2]; rGH=GHblood1/GHblood0, antagonist 80 μg/kg i.v. 5 min before GH-RH 3 μg/kg)	Inhibition of GH release (%) 30 min ([1]; antagonist 100 nM) [%]	Inhibition of GH release (%) 60 min ([1]; antagonist 100 nM) [%]	Inhibition of GH release (%) 0 min ([1]; antagonist 100 nM) [%]
–	–	[PhAc^0, His^1, D-Arg^2, Phe(pCl)^6, Arg^9, Abu^15, Nle^27, D-Arg^28, Har^29]hGH-RH(1–29)NH2 [Peptide 7]	92	82	77	65	97	–	–	–	–	–	–	–	–	–	–	–	–
–	–	[Nac^0, His^1, D-Arg^2, Phe(pCl)^6, Arg^9, Abu^15, Nle^27, D-Arg^28, Har^29]hGH-RH(1–29)NH2 [Peptide 8]	100	98	97	90	100	strong and long-lasting inhibition	74	46	3.6 ± 0.4	8	5.5 ± 0.6	1	5.8 ± 0.7	2.3 ± 0.3	–	–	–
2.94	1	CC[C@H](C)[C@H](NC(=O)[C@H](C)NC(=O)[C@H](CC(=O)O)NC(=O)[C@@H](CCCNC(=N)N)NC(=O)[C@H](Cc1ccc(O)cc1)NC(C)=O)C(=O)N[C@@H](Cc1ccccc1)C(=O)N[C@H](C(=O)N[C@@H](CC(N)=O)C(=O)N[C@@H](CO)C(=O)N[C@@H](Cc1ccc(O)cc1)C(=O)N[C@@H](CCCNC(=N)N)C(=O)N[C@@H](CCCCN)C(=O)N[C@H](C(=O)N[C@@H](CC(C)C)C(=O)NCC(=O)N[C@@H](CCC(N)=O)C(=O)N[C@@H](CC(C)C)C(=O)N[C@@H](CO)C(=O)N[C@@H](C)C(=O)N[C@@H](CCCNC(=N)N)C(=O)N[C@@H](CCCCN)C(=O)N[C@@H](CC(C)C)C(=O)N[C@@H](CC(C)C)C(=O)N[C@@H](CCC(N)=O)C(=O)N[C@@H](CC(=O)O)C(=O)N[C@H](C(=O)N[C@@H](CCSC)C(=O)N[C@@H](CO)C(=O)N[C@@H](CCCNC(=N)N)C(N)=O)[C@@H](C)CC)C(C)C)[C@@H](C)O [Standard antagonist, [Ac-Tyr^1,D-Arg^2]hGH-RH(1–29)NH2, reference compound] (Ac-Y[dR]DAIFTNSYRKVLGQLSARKLLQDIMSR-NH2)	–	–	–	–	–	–	–	–	–	–	–	–	–	–	2.5	19	62.1
–	–	[PhAc^0, D-Arg^2, Phe(pCl)^6, Arg^9, Tyr(Me)^10, Abu^15, Nle^27, D-Arg^28, Har^29]hGH-RH(1–29)NH2 [Peptide 6]	93	97	95	90	93	–	–	–	–	–	–	–	–	–	–	–	–
0.07	42	CCCC[C@H](NC(=O)[C@H](CC(N)=O)NC(=O)[C@@H](NC(=O)[C@H](Cc1ccc(Cl)cc1)NC(=O)[C@@H](NC(=O)[C@H](C)NC(=O)[C@H](CC(=O)O)NC(=O)[C@@H](CCCNC(=N)N)NC(=O)[C@H](Cc1ccc(O)cc1)NC(=O)Cc1ccccc1)[C@@H](C)CC)[C@@H](C)O)C(=O)N[C@@H](Cc1ccc(O)cc1)C(=O)N[C@@H](CCCNC(=N)N)C(=O)N[C@@H](CCCCN)C(=O)N[C@H](C(=O)N[C@@H](CC(C)C)C(=O)N[C@@H](CC)C(=O)N[C@@H](CCC(N)=O)C(=O)N[C@@H](CC(C)C)C(=O)N[C@@H](CO)C(=O)N[C@@H](C)C(=O)N[C@@H](CCCNC(=N)N)C(=O)N[C@@H](CCCCN)C(=O)N[C@@H](CC(C)C)C(=O)N[C@@H](CC(C)C)C(=O)N[C@@H](CCC(N)=O)C(=O)N[C@@H](CC(=O)O)C(=O)N[C@H](C(=O)N[C@@H](CCCC)C(=O)N[C@@H](CO)C(=O)N[C@H](CCCNC(=N)N)C(N)=O)[C@@H](C)CC)C(C)C [Peptide 12, [PhAc^0, D-Arg^2, Phe(pCl)^6, Nle^9, Abu^15, Nle^27, D-Arg^29]hGH-RH(1–29)NH2] (PhAc-Y[dR]DAI[Phe(4-Cl)]TN[Nle]YRKVL[Abu]QLSARKLLQDI[Nle]S[dR]-NH2)	75	48	52	52	68	–	–	–	–	–	–	–	–	–	–	–	–
–	–	[PhAc^0, D-Arg^2, Phe(pCl)^6, Tyr(Me)^10, Abu^15, D-Arg^27, Arg^28, D-Arg^29]hGH-RH(1–29)NH2 [Peptide 19]	47	59	23	39	58	–	–	–	–	–	–	–	–	–	–	–	–
